Data reported in US4082761A, “Triazolo[4,3-a][1,4]benzodiazepinium quaternary salts” (The Upjohn Company, priority 1973, dated 1978).
Structures can show the parent of a compound that is named as a salt.

Columns and labels:
Assay type in all cases: in vivo
mice [1] = assay: Chimney test (mice fail to back up and out of a vertical glass cylinder within 30 seconds); conditions: Mus musculus, ip; intraperitoneal injection in mice; 50% of the mice failed to back out within 30 seconds; read-out: ED50 Ch (chimney test)
Text: (§1) Tranquilizing effects of the compounds of this invention are shown by the following tests in mice:
Chimney test: [Med. Exp. 4, 145 (1961)]: The test determines the ability of mice to back up and out of a vertical glass cylinder within 30 seconds. At the effective dosage, 50% of the mice failed doing it.

mice [2] = assay: Dish test (mice remaining in the dish for more than 3 minutes); conditions: Mus musculus, ip, 0.05 h; intraperitoneal injection in mice; 50% of the mice remain in the dish for more than 3 minutes; read-out: ED50 D (dish test)
Protocol: as §1
Dish test: Mice in Petri dishes (10 cm. diameter, 5 cm. high, partially embedded in wood shavings), climb out in a very short time, when not treated. Mice remaining in the dish for more than 3 minutes indicates tranquilization. ED50 equals the dose of test compound at which 50% of the mice remain in the dish.

mice [3] = assay: Pedestal test (mice stay on the pedestal for more than 1 minute); conditions: Mus musculus, ip, 1 min, intraperitoneal injection in mice, read-out: ED50 P (pedestal test)
Protocol: as §1
Pedestal test: The untreated mouse leaves a standard pedestal in less than a minute to climb back to the floor of the standard mouse box. Tranquilized mice will stay on the pedestal for more than 1 minute.

mice [4] = assay: Nicotine antagonism test (nicotine salicylate 2 mg./kg.); conditions: Mus musculus, ip, intraperitoneal injection in mice, nicotine salicylate 2 mg./kg. thirty minutes later
Protocol: as §1
Nicotine antagonism test: Mice in a group of 6 are injected with the test compound. Thirty minutes later the mice including control (untreated) mice are injected with nicotine salicylate (2 mg./kg.). The control mice show overstimulation, i.e., (1) running convulsions followed by (2) tonic extensor fits; followed by (3) death.
Ni = nicotine antagonism (2) and (3) tests.

[5] = (2) tonic extensor fits, read-out: ED50 Ni(2) (nicotine antagonism (2) test)
[6] = (3) death, read-out: ED50 Ni(3) (nicotine antagonism (3) test)

SMILES | ED50 (mice [1]) | ED50 (mice [2]) | ED50 (mice [3]) | ED50 (mice [4]; [5]) | ED50 (mice [4]; [6])
Cc1n[n+](C)c2n1-c1ccc(Cl)cc1C(c1ccccc1)=NC2 [8-Chloro-1,3-dimethyl-6-phenyl-4H-s-triazolo[4,3-a][1,4]benzodiazepinium chloride sesquihydrate] | 36 mg/kg | 79 mg/kg | 79 mg/kg | 22 mg/kg | 22 mg/kg
C[n+]1nc([O-])n2c1CN=C(c1ccccc1Cl)c1cc(Cl)ccc1-2 [8-Chloro-6-(o-chlorophenyl)-1-hydroxy-3-methyl-4H-s-triazolo[4,3-a][1,4]benzodiazepinium hydroxide inner salt] | 1.6 mg/kg | 1.2 mg/kg | 3.2 mg/kg | 0.3 mg/kg | 0.44 mg/kg
